Source: patent US20050014830A1 (priority 2003, published 2005)
Read-outs that look alike come from different tables or passages of the source.

Columns and labels:
SARS virus = test system: SARS virus; design: species or system SARS virus (coronavirus)
Serratia bacterium = test system: Serratia bacterium; design: species or system Serratia species

O=C(O)CCCCCCCO [8-hydroxyoctanoic acid]
conformation of the SARS virion (AFM picture) (SARS virus; FIG. 9B, a few minutes after treatment): disruption | conformation of the SARS virion (AFM picture) (SARS virus; FIG. 9C, a few more minutes into treatment): collapsed further more | conformation of the SARS virion (AFM picture) (SARS virus; FIG. 9D, final stage of treatment): completely killed | AFM height of the enterovirus virion after treatment (enterovirus): about 1,300 nm | surface roughness of the bacterium measured by AFM (Serratia bacterium): increased
